Measurements as given in patent US11345711B2, “8,9-dihydroimidazo[1,2-a]pyrimido[5,4-e]pyrimidin-5(6H)-ones” (IMPACT THERAPEUTICS (SHANGHAI), INC, priority 2016, dated 2022).
pIC50: −log10 of the molar value. Like-named read-outs stand apart in the source and are kept apart here.

How the values were obtained:
NCI-H1299 cells = assay: MTT based cell viability assay on NCI-H1299 cells; settings: Homo sapiens, read-out: IC50, growth inhibition of NCI-H1299 cells
Procedure, shortened: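 Viability read-out was MTT reduction (0.5 mg/mL, 4 h, absorbance 552/630/690 nm) after 3-day compound exposure at 37 °C of NCI-H1299 cells seeded at 1000 per well. Dilutions spanned 10 μM–0.01 μM in DMSO, final DMSO 1‰. Survival-versus-concentration curves were fitted sigmoidally to give IC50.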

Wee1 (h) = Wee1 (h) (Homo sapiens, UniProt P30291); assay: Wee1 kinase (h) detection method, [γ-33P]-ATP filter assay; assay type: biochemical
Chain of Wee1 (h) (P30291 whole entry): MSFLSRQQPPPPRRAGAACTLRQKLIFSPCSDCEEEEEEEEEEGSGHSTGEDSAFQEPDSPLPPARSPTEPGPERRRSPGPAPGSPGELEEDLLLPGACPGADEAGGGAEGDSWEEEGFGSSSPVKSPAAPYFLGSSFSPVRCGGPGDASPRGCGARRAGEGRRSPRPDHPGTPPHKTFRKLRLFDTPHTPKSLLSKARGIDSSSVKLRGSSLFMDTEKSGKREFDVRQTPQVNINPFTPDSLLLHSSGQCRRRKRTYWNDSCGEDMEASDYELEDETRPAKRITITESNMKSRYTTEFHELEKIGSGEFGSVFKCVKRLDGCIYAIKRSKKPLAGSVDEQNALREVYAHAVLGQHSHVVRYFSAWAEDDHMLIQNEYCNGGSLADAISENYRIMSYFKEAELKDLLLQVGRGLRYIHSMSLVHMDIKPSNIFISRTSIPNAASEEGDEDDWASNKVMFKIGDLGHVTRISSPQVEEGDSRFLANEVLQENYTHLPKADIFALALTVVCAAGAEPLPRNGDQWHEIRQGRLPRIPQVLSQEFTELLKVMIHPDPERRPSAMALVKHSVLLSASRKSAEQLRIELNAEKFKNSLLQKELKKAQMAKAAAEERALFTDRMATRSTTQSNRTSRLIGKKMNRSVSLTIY

LoVo cells = assay: MTT based cell viability assay on LoVo cells; settings: Homo sapiens, LoVo, 72 h, 3 d, read-out: IC50, growth inhibition of LoVo cells
Procedure, shortened: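 Inhibition of LoVo proliferation was derived as IC50 from a sigmoidal dose-response fit of cell survival. Readout was MTT (0.5 mg/mL, 4 h) with absorbance at 552/630/690 nm, after 3-day treatment at 37 °C. Eight-point series from 10 μM to 0.01 μM, DMSO control, 1% DMSO final.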

Row | SMILES | pIC50 (NCI-H1299 cells; NCI-H1299 cells) | Inh. (%) of Wee1 kinase enzyme activity (Wee1 (h); C 1 μm compound) | pIC50 (LoVo cells) | pIC50 (NCI-H1299 cells; NCI-H1299, NCI-H1299 cells) | Inh. (%) of Wee1 kinase enzyme activity (Wee1 (h); C 0.01 μm compound) | Inh. (%) of Wee1 kinase enzyme activity (Wee1 (h); C 0.1 μm compound)
1 | CN1CCN(c2ccc(Nc3ncc4c(n3)N3CCN=C3N(c3c(F)cccc3Cl)C4=O)c(C(F)(F)F)c2)CC1 [Example 40, 6-(2-Chloro-6-fluorophenyl)-2-((4-(4-methylpiperazin-1-yl)-2-(trifluoromethyl)phenyl)amino)-8,9-dihydroimidazo[1,2-a]pyrimido[5,4-e]pyrimidin-5(6H)-one] | < 5.00 | 4% | < 4.00 | – | – | –
2 | Cc1cc(N2CCN(C)CC2)ccc1Nc1ncc2c(n1)N1CCN=C1N(c1c(F)cccc1Cl)C2=O [Example 42, 6-(2-Chloro-6-fluorophenyl)-2-((2-methyl-4-(4-methylpiperazin-1-yl)phenyl)amino)-8,9-dihydroimidazo[1,2-a]pyrimido[5,4-e]pyrimidin-5(6H)-one] | < 5.00 | 19% | < 4.00 | – | – | –
3 | CN1CCN(c2ccc(Nc3ncc4c(n3)N3CCN=C3N(c3c(F)cccc3Cl)C4=O)cc2F)CC1 [Example 44, 6-(2-Chloro-6-fluorophenyl)-2-((3-fluoro-4-(4-methylpiperazin-1-yl)phenyl)amino)-8,9-dihydroimidazo[1,2-a]pyrimido[5,4-e]pyrimidin-5(6H)-one] | – | 93% | 7.43 | 6.22 | 23% | 75%
4 | CN1CCN(c2ccc(Nc3ncc4c(n3)N3CCN=C3N(c3c(F)cccc3Cl)C4=O)cc2Cl)CC1 [Example 46, 6-(2-Chloro-6-fluorophenyl)-2-((3-chloro-4-(4-methylpiperazin-1-yl)phenyl)amino)-8,9-dihydroimidazo[1,2-a]pyrimido[5,4-e]pyrimidin-5(6H)-one] | – | 97% | 7.58 | 6.28 | 36% | 85%
5 | COc1cc(Nc2ncc3c(n2)N2CCN=C2N(c2c(F)cccc2Cl)C3=O)ccc1N1CCN(C)CC1 [Example 54, 6-(2-Chloro-6-fluorophenyl)-2-((3-methoxy-4-(4-methylpiperazin-1-yl)phenyl)amino)-8,9-dihydroimidazo[1,2-a]pyrimido[5,4-e]pyrimidin-5(6H)-one] | 5.81 | 81% | 6.81 | – | – | –
6 | CN1CCN(c2ccc(Nc3ncc4c(n3)N3CCN=C3N(c3c(F)cccc3Cl)C4=O)cc2[N+](=O)[O-])CC1 [Example 55, 6-(2-Chloro-6-fluorophenyl)-2-((4-(4-methylpiperazin-1-yl)-3-nitrophenyl)amino)-8,9-dihydroimidazo[1,2-a]pyrimido[5,4-e]pyrimidin-5(6H)-one] | < 5.00 | 12% | < 4.00 | – | – | –
7 | Cc1cc(Nc2ncc3c(n2)N2CCN=C2N(c2c(F)cccc2Cl)C3=O)cc(C)c1N1CCN(C)CC1 [Example 56, 6-(2-Chloro-6-fluorophenyl)-2-((3,5-dimethyl-4-(4-methylpiperazin-1-yl)phenyl)amino)-8,9-dihydroimidazo[1,2-a]pyrimido[5,4-e]pyrimidin-5(6H)-one] | – | 90% | 7.33 | 6.50 | 14% | 80%
8 | CN1CCN(c2ccc(Nc3ncc4c(n3)N3CCN=C3N(c3c(F)cccc3Cl)C4=O)cn2)CC1 [Example 57, 6-(2-Chloro-6-fluorophenyl)-2-((6-(4-methylpiperazin-1-yl)pyridin-3-yl)amino)-8,9-dihydroimidazo[1,2-a]pyrimido[5,4-e]pyrimidin-5(6H)-one] | < 5.00 | 89% | 4.87 | – | 36% | 80%

Second part, the molecule after the results:

Row | pIC50 (NCI-H1299 cells; NCI-H1299 cells) | Inh. (%) of Wee1 kinase enzyme activity (Wee1 (h); C 1 μm compound) | pIC50 (LoVo cells) | pIC50 (NCI-H1299 cells; NCI-H1299, NCI-H1299 cells) | Inh. (%) of Wee1 kinase enzyme activity (Wee1 (h); C 0.01 μm compound) | Inh. (%) of Wee1 kinase enzyme activity (Wee1 (h); C 0.1 μm compound) | SMILES
9 | < 5.00 | 2% | < 4.00 | – | – | – | C[C@@H]1CN(c2ccc(Nc3ncc4c(n3)N3CCN=C3N(c3c(F)cccc3Cl)C4=O)c(C(F)(F)F)c2)C[C@H](C)N1C [Example 41, 6-(2-Chloro-6-fluorophenyl)-2-((2-trifluoromethyl-4-((3S,5R)-3,4,5-trimethylpiperazin-1-yl)phenyl)amino)-8,9-dihydroimidazo[1,2-a]pyrimido[5,4-e]pyrimidin-5(6H)-one]
10 | < 5.00 | 27% | < 4.00 | – | – | – | Cc1cc(N2C[C@@H](C)N(C)[C@@H](C)C2)ccc1Nc1ncc2c(n1)N1CCN=C1N(c1c(F)cccc1Cl)C2=O [Example 43, 6-(2-Chloro-6-fluorophenyl)-2-((2-methyl-4-((3S,5R)-3,4,5-trimethylpiperazin-1-yl)phenyl)amino)-8,9-dihydroimidazo[1,2-a]pyrimido[5,4-e]pyrimidin-5(6H)-one]
11 | – | 95% | 5.93 | 6.21 | 28% | 80% | C[C@@H]1CN(c2ccc(Nc3ncc4c(n3)N3CCN=C3N(c3c(F)cccc3Cl)C4=O)cc2F)C[C@H](C)N1C [Example 45, 6-(2-Chloro-6-fluorophenyl)-2-((3-fluoro-4-((3S,5R)-3,4,5-trimethylpiperazin-1-yl)phenyl)amino)-8,9-dihydroimidazo[1,2-a]pyrimido[5,4-e]pyrimidin-5(6H)-one]
12 | 6.48 | 98% | 7.52 | – | 45% | 89% | C[C@@H]1CN(c2ccc(Nc3ncc4c(n3)N3CCN=C3N(c3c(F)cccc3Cl)C4=O)cc2Cl)C[C@H](C)N1C [Example 47, 2-((3-Chloro-4-((3S,5R)-3,4,5-trimethylpiperazin-1-yl)phenyl)amino)-6-(2-chloro-6-fluorophenyl)-8,9-dihydroimidazo[1,2-a]pyrimido[5,4-e]pyrimidin-5(6H)-one]
13 | – | 91% | 6.93 | 5.95 | 29% | 75% | CN1CCN(c2ccc(Nc3ncc4c(n3)N3CCN=C3N(c3c(F)cccc3Cl)C4=O)cc2C(F)(F)F)CC1 [Example 48, 6-(2-Chloro-6-fluorophenyl)-2-((4-(4-methylpiperazin-1-yl)-3-(trifluoromethyl)phenyl)amino)-8,9-dihydroimidazo[1,2-a]pyrimido[5,4-e]pyrimidin-5(6H)-one]
14 | 6.26 | 95% | 7.01 | – | 43% | 86% | C[C@@H]1CN(c2ccc(Nc3ncc4c(n3)N3CCN=C3N(c3c(F)cccc3Cl)C4=O)cc2C(F)(F)F)C[C@H](C)N1C [Example 49, 6-(2-Chloro-6-fluorophenyl)-2-((3-trifluoromethyl-4-((3S,5R)-3,4,5-trimethylpiperazin-1-yl)phenyl)amino)-8,9-dihydroimidazo[1,2-a]pyrimido[5,4-e]pyrimidin-5(6H)-one]
15 | – | 100% | 7.23 | 6.64 | 62% | 95% | Cc1cc(Nc2ncc3c(n2)N2CCN=C2N(c2c(F)cccc2Cl)C3=O)ccc1N1CCN(C)CC1 [Example 50, 6-(2-Chloro-6-fluorophenyl)-2-((3-methyl-4-(4-methylpiperazin-1-yl)phenyl)amino)-8,9-dihydroimidazo[1,2-a]pyrimido[5,4-e]pyrimidin-5(6H)-one]
16 | – | 96% | 6.98 | 6.78 | 66% | 86% | Cc1cc(Nc2ncc3c(n2)N2CCN=C2N(c2c(F)cccc2Cl)C3=O)ccc1N1C[C@@H](C)N(C)[C@@H](C)C1 [Example 51, 6-(2-Chloro-6-fluorophenyl)-2-((3-methyl-4-((3S,5R)-3,4,5-trimethylpiperazin-1-yl)phenyl)amino)-8,9-dihydroimidazo[1,2-a]pyrimido[5,4-e]pyrimidin-5(6H)-one]
17 | – | 93% | 7.06 | 6.90 | 111% | 80% | Cc1cc(Nc2ncc3c(n2)N2CCN=C2N(c2c(F)cccc2Cl)C3=O)ccc1N1CCN(C(C)C)CC1 [Example 52, 6-(2-Chloro-6-fluorophenyl)-2-((4-(4-isopropylpiperazin-1-yl)-3-methylphenyl)amino)-8,9-dihydroimidazo[1,2-a]pyrimido[5,4-e]pyrimidin-5(6H)-one]
18 | – | 91% | 7.07 | 6.84 | 13% | 82% | Cc1cc(Nc2ncc3c(n2)N2CCN=C2N(c2c(F)cccc2Cl)C3=O)ccc1N1C[C@@H](C)N(C(C)C)[C@@H](C)C1 [Example 53, 6-(2-Chloro-6-fluorophenyl)-2-((4-((3S,5R)-4-isopropyl-3,5-dimethylpiperazin-1-yl)-3-methylphenyl)amino)-8,9-dihydroimidazo[1,2-a]pyrimido[5,4-e]pyrimidin-5(6H)-one]
